Results on three compounds are retold here after PMC6642186, “Molecular mechanism of setron-mediated inhibition of full-length 5-HT3A receptor” (Nature Communications, 2019).

Where a chain is given by its changes, count along the chain named.

The conditions of series [1]: tertiary ammonium in the bicyclic ring; no reference given; cited from earlier work.
Another series relates to α7nAChR. Further details: method as in PMID 11212100, PMID 15781147. The following applies: cited from earlier work.
A further series has as its target T1, wild-type (WT) 5-HT3AR (Mus musculus, UniProt P23979).
T1 construct: Full-length 5-HT3AR messenger RNA (mRNA) was injected into oocytes; expressed in transfected cells; host or cells: Xenopus laevis oocytes (mRNA injection, pTLN vector)
T1 sequence (P23979 24-483 isoform P23979-2 limits assumed): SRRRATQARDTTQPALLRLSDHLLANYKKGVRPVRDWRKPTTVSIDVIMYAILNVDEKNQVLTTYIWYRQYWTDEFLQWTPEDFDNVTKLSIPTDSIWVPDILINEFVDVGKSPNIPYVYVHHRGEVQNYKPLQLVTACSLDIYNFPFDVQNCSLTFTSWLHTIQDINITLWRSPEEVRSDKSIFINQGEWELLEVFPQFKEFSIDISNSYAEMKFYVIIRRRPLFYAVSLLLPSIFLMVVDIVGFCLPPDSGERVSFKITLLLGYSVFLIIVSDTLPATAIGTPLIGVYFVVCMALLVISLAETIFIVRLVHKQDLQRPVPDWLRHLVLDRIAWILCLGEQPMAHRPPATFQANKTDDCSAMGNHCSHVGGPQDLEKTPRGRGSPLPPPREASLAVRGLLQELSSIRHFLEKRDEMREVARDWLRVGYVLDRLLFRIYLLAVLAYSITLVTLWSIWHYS
Kind of series: Serotonin dose response by TEVC recordings in oocytes. In kind it is cell-based. The conditions noted are these: for Normalized current: wt. On the procedure: (§1) Data are shown as mean ± s.d. (n is indicated within parentheses). Significance at p = 0.001 (***) and […] calculated by two-sample t test for WT and mutants. Source data are provided as a Source Data file
(§2) The gene encoding mouse 5-HT3AR (purchased from GenScript) was inserted into a Xenopus laevis expression vector (pTLN) using cloning primers shown in Supplementary Table 1. DNA linearization was carried out with the Mlu1 restriction enzyme overnight at 37 °C. mRNA synthesis was done using the mMessage mMachine Kit (Ambion) as per the manufacturer’s instructions and purification was done with RNAeasy Kit (Qiagen). mRNA for studied mutants was prepared in the same way. Three to ten nanograms of mRNA was injected into X. laevis oocytes (stages V–VI) and experiments were performed 2–5 days after injection. For control experiments to verify that no endogenous currents were present, oocytes were injected with the same volume of water. W.F. Boron kindly provided oocytes used in this study. Female X. laevis were purchased from Nasco. Animal experimental procedures were approved by Institutional Animal Care and Use Committee (IACUC) of Case Western Reserve University. […] Oocytes were clamped at a holding potential of −60 mV. Solutions were changed using a syringe pump perfusion system flowing at a rate of 6 ml/min.

The target in another series is T2, 5-HT3AR W63Y mutant (Mus musculus, UniProt P23979, W90Y).
T2 construct: Full-length 5-HT3AR messenger RNA (mRNA) was injected into oocytes; expressed in transfected cells; host or cells: Xenopus laevis oocytes (mRNA injection, pTLN vector)
T2 sequence (P23979 24-483 isoform P23979-2 W90Y): T1 sequence (P23979 24-483 isoform P23979-2 limits assumed) with W67Y
Described as above. The format is cell-based. On the procedure:
as §1, §2

In a further series the target is T3, 5-HT3AR W156Y mutant (Mus musculus, UniProt P23979, W183Y).
T3 construct: Full-length 5-HT3AR messenger RNA (mRNA) was injected into oocytes; expressed in transfected cells; host or cells: Xenopus laevis oocytes (mRNA injection, pTLN vector)
T3 sequence (P23979 24-483 isoform P23979-2 W183Y): T1 sequence (P23979 24-483 isoform P23979-2 limits assumed) with W160Y
The description is as above. The format is cell-based. The method, then:
as §1, §2

A further series has as its target T4, 5-HT3AR R65A mutant (Mus musculus, UniProt P23979, R92A).
T4 construct: Full-length 5-HT3AR messenger RNA (mRNA) was injected into oocytes; expressed in transfected cells; host or cells: Xenopus laevis oocytes (mRNA injection, pTLN vector)
T4 sequence (P23979 24-483 isoform P23979-2 R92A): T1 sequence (P23979 24-483 isoform P23979-2 limits assumed) with R69A
The series is described as above. In kind it is cell-based. On the procedure:
as §1, §2

Another series deals with T5, 5-HT3AR Y207F mutant (Mus musculus, UniProt P23979, Y234F).
T5 construct: Full-length 5-HT3AR messenger RNA (mRNA) was injected into oocytes; expressed in transfected cells; host or cells: Xenopus laevis oocytes (mRNA injection, pTLN vector)
T5 sequence (P23979 24-483 isoform P23979-2 Y234F): T1 sequence (P23979 24-483 isoform P23979-2 limits assumed) with Y211F
The series is described as above. In kind it is cell-based. On the procedure: as §1, §2

Another series deals with T6, 5-HT3AR Y126F mutant (Mus musculus, UniProt P23979, Y153F).
T6 construct: Full-length 5-HT3AR messenger RNA (mRNA) was injected into oocytes; expressed in transfected cells; host or cells: Xenopus laevis oocytes (mRNA injection, pTLN vector)
T6 sequence (P23979 24-483 isoform P23979-2 Y153F): T1 sequence (P23979 24-483 isoform P23979-2 limits assumed) with Y130F
The series is described as above. The format is cell-based. The method, then:
as §1, §2

In series [2] the test system is human 5-HT3AR with mutations at the Arg65 position. Further details: method as in PMID 28137449. The conditions noted are these: cited from earlier work.
[3] abbreviates: serotonin dose response, TEVC at −60 mV, oocytes.

For orientation: pKa means the negative logarithm of the acid dissociation constant. Take `CN1C2CCCC1CC(NC(=O)c1nn(C)c3ccccc13)C2` (stereo not shown) [granisetron]: in series [1], the pKa was 9.6. In addition, in the series on α7nAChR, the “binding to α7nAChR” value is listed as “does not bind”.
For `NCCc1c[nH]c2ccc(O)cc12` [serotonin], the “Hill coefficient (nH)” value at wild-type (WT) 5-HT3AR (serotonin dose response, TEVC at −60 mV, oocytes, WT) is listed as 2.3 ± 0.17; on 5-HT3AR W63Y mutant (setting [3]) it was 3.1 ± 0.72; on 5-HT3AR W156Y mutant (setting [3]), 1.58 ± 0.24; at 5-HT3AR R65A mutant (setting [3]), 4.4 ± 0.59; at 5-HT3AR Y207F mutant (setting [3]) it was 1.9 ± 0.27; on 5-HT3AR Y126F mutant (setting [3]), 2.6 ± 0.71. For the same compound, the Normalized current was found to be 0.091 on wild-type (WT) 5-HT3AR (1 microM serotonin); 0.3528 on wild-type (WT) 5-HT3AR (2 microM serotonin); 0.5303 on wild-type (WT) 5-HT3AR (3 microM serotonin); 0.8338 at wild-type (WT) 5-HT3AR (5 microM serotonin); 0.9464 at wild-type (WT) 5-HT3AR (10 microM serotonin); 1 on wild-type (WT) 5-HT3AR (30 microM serotonin). In addition, the Normalized current on 5-HT3AR W63Y mutant (2 microM serotonin) worked out at 0.00868; at 5-HT3AR W63Y mutant (5 microM serotonin), 0.07991; on 5-HT3AR W63Y mutant (10 microM serotonin), 0.4765; at 5-HT3AR W63Y mutant (15 microM serotonin), 0.7556; at 5-HT3AR W63Y mutant (30 microM serotonin), 0.8311; on 5-HT3AR W63Y mutant (100 microM serotonin) it was 1. The Normalized current on 5-HT3AR W156Y mutant (20 microM serotonin) stood at 0.00976; at 5-HT3AR W156Y mutant (50 microM serotonin), 0.04708; on 5-HT3AR W156Y mutant (100 microM serotonin), 0.2083; at 5-HT3AR W156Y mutant (200 microM serotonin) it was 0.2793; at 5-HT3AR W156Y mutant (500 microM serotonin), 0.6574; on 5-HT3AR W156Y mutant (1000 microM serotonin), 0.8828. The Normalized current stood at 1 on 5-HT3AR W156Y mutant (2000 microM serotonin); 0.00482 on 5-HT3AR R65A mutant (2.5 microM serotonin); 0.04808 on 5-HT3AR R65A mutant (5 microM serotonin); 0.6252 on 5-HT3AR R65A mutant (15 microM serotonin); 0.7837 on 5-HT3AR R65A mutant (20 microM serotonin); 1 at 5-HT3AR R65A mutant (100 microM serotonin). In addition, the Normalized current was 0.02946 on 5-HT3AR Y207F mutant (5 microM serotonin); 0.2522 on 5-HT3AR Y207F mutant (10 microM serotonin); 0.6081 on 5-HT3AR Y207F mutant (30 microM serotonin); 0.8641 at 5-HT3AR Y207F mutant (50 microM serotonin); 0.8795 at 5-HT3AR Y207F mutant (100 microM serotonin); 0.9933 on 5-HT3AR Y207F mutant (250 microM serotonin). Moreover, the Normalized current came out at 0.9971 at 5-HT3AR Y207F mutant (500 microM serotonin); 1 on 5-HT3AR Y207F mutant (1000 microM serotonin); 0.04616 at 5-HT3AR Y126F mutant (10 microM serotonin); 0.2137 at 5-HT3AR Y126F mutant (30 microM serotonin); 0.6516 at 5-HT3AR Y126F mutant (50 microM serotonin); 0.7792 at 5-HT3AR Y126F mutant (100 microM serotonin). The values for the Normalized current at 5-HT3AR Y126F mutant (250 microM serotonin), on 5-HT3AR Y126F mutant (500 microM serotonin) and on 5-HT3AR Y126F mutant (1000 microM serotonin) were 0.904, 0.985 and 1, respectively.
Turning to `CN1[C@@H]2CC[C@H]1C[C@@H](OC(=O)c1c[nH]c3ccccc13)C2` [tropisetron], the “effect of mutations at the Arg65 position on binding” value in series [2] is given as “only reduced”. Further, the “binding to α7nAChR” value in the series with α7nAChR is “bind to α7nAChR leading to channel activation”.
